Test system: HaCaT keratinocytes
Test: Influence on keratinocyte proliferation (HaCaT, Cell Titer Viability Assay)
Assay type: cell-based
Conditions: Homo sapiens, 25 μM test compound, KBM/FCS, 1% DMSO, 48 hrs incubation, read-out: inhibition of keratinocyte proliferation compared to control experiments
Procedure: Influence of Compounds According to the Invention on Keratinocyte Proliferation
5×10^3 HaCaT keratinocytes were seeded into 60 wells of 96 well plates in 200 μl KBM/10% FCS and incubated for 24 hrs at 37° C. The test compounds were dissolved at 100 mM in DMSO. The test items were then diluted to a concentration of 25 μM in KBM/FCS with a final concentration of 1% DMSO. The test compounds, as well as the negative control for unstimulated cells (KBM/1% DMSO) and stimulated cells (KBM/FCS/1% DMSO), were added to the HaCaTs in triplicates and incubated for 48 hrs. At the end of the incubation period, the media was removed and cell numbers were determined with Cell Titer Viability Assay from Promega (#G7571/G7572) according to the manufacturer's instructions.

With COc1cccc(C(=O)N2c3ccccc3-c3ccccc3C2c2c[nH]c3ccccc23)c1 (stereo not shown) [Example 11, [6-(1H-Indol-3-yl)-6H-phenanthridin-5-yl]-(3-methoxy-phenyl)-methanone] the inhibition at 25 µM was greater than 50%.
